Patent publication US20240307220A1, “Combination Therapy to Treat Temperature Sensitive Mutant Tumors” (H. LEE MOFFITT CANCER CENTER AND RESEARCH INSTITUTE INC., priority 2021, published 2024)

What was measured:
[1] = test system: H1299 cells expressing A138V; assay: ChIP of p53 DNA binding in H1299 expressing A138V shifted to 32° C. with CHX or 17-AAG; type: cell-based, human; design: rescue of p53 DNA binding at 32° C. (ChIP): dose or concentration left out as unconfirmed
Description: FIGS. 4A to 4E show molecular chaperones mediate refolding of stockpiled ts p53 at permissive temperature. […] P53 binding to p21 promoter was determined by ChIP. […] P53 DNA binding was determined by ChIP. FIG. 4C is a diagram of cell-free luciferase fragment complementation assay that detects the DNA binding of p53-Cluc fusion protein. ZF-Nluc and p53-Cluc binding to DNA containing ZF and p53 sites juxtapose Nluc and Cluc domains to restore luciferase activity. […] The heat-treated p53-Cluc proteins were mixed with ZF-Nluc, DNA, ATP, E. coli extract containing 5 chaperones and incubated for 3 hrs at 23° C. P53 DNA binding was detected by measuring luciferase activity. The results are average of 3 experiments (mean±SD). **p<0.01.
Chromatin immunoprecipitation (ChIP). ChIP assay was performed using standard procedure. Crosslinked p53-DNA complexes were immunoprecipitated with DO-1 antibody. Samples were subjected to SYBR Green real-time PCR analysis using forward and reverse primers for the p53 binding sites in the p21 promoter ([…] (SEQ ID NO:7) and […] (SEQ ID NO:8)), and PUMA promoter ([…] (SEQ ID NO:9) and […] (SEQ ID NO:10)).

[2] = Pharmacological induction of hypothermia by CHA in nude mice; type: in vivo
Description: FIGS. 6A to 6D show hypothermia inhibits the growth of tumors expressing ts p53. […] One group of mice was treated with 32° C. hypothermia in 24 hr×6 format. Control animals (37° C.) were not treated. […] Tumor size (mean±SD) was plotted over time.
Animal experiment. Animal experiments were reviewed and approved by the University of South Florida IACUC. Athymic female nude mice (6-week old, Athymic Nude-Foxn1nu, Envigo) were injected subcutaneously with 0.1 ml 1:1 slurry of Matrigel (VWR 47743-715) and 1×10^7 cells in PBS at each site. The inoculated mice were housed in a cabinet set to 28° C. (ARIA BIO-C36 ventilated cabinet, TECNIPLAST) to ensure that tumors develop at ˜37° C. Each mouse received injections at 2 sites, tumors formed at >80% of sites injected with GA10 cells. N^6-cyclohexyladenosine (CHA, Sigma C9901) was dissolved at 20 mg/ml in 25% (2-Hydroxypropyl)-β-cyclodextrin (w/v, Sigma H107) and heated at 65° C. for 10 min to ensure dissolution. Camptothecin (CPT, Santa Cruz Biotechnology sc-200871B) was freshly dissolved in 1 N NaOH, diluted to ˜0.5 mg/ml with saline, and adjusted to pH10 using HCl. To induce hypothermia, 0.2 ml saline+10% glucose containing CHA and CPT was administered by intra peritoneal injection to provide a CHA dosage of 10 mg/kg body weight and CPT (when indicated) dosage of 1.5 mg/kg body weight. The mice were kept in the 28° C. cabinet and monitored using infrared thermal imaging camera (FLIR ONE Pro, FLIR® Systems, Inc.) to verify that body temperature was maintained at ˜32° C. A second injection of CHA (10 mg/kg) in 0.4 ml saline+10% glucose was given after 10 hours to maintain hypothermia for ˜24 hours. A third injection of CHA (10 mg/kg) in 0.4 ml saline+10% glucose was given after 10 hours to maintain hypothermia for ˜32 hours. After regaining normal body temperature, the mice were kept for 2-4 days in the 28° C. cabinet to allow weight recovery (˜10% weight loss occurred during hypothermia due to loss of mobility and food intake). The treatment was repeated 4-5 times (24 hr×6 or 32 hr×5 format). In each subsequent round CHA dosage was increased by 25% to compensate for the gradual loss of sensitivity.
Pharmacological induction of hypothermia. To test the effect of hypothermia on tumors with ts p53, the adenosine A1 receptor (A1AR) agonist CHA ([…]) was used to lower mouse body temperature to 32° C. for 24-48 hours. […] Intraperitoneal injection of CHA caused body temperature to decrease to ˜3° C. above the environment in ˜10 minutes, consistent with the induction of hibernation-like response in rats and mice by A1AR agonists (Tupone D, et al. J Neurosci 2013 33:14512-25; Futatsuki T, et al. Sci Rep 2018 8:2717). […] This was achieved by keeping the CHA-treated mice in a 28° C. environment (FIG. 6A). […]

[3] = test system: UC3 bladder cancer cells; assay: UC3 colony formation after 2 hrs drug treatment, washout and 32° C. or 37° C. incubation; type: cell-based; conditions: 2 hrs drug at 37° C., washout, 32° C. vs 37° C. 24 hrs, then 7 days at 37° C.
Description: FIGS. 17A and 17B show hypothermia treatment given after chemotherapy enhances drug response in bladder cancer. […] The washed cells were incubated at 32° C. or 37° C. for 24 hrs, followed by 7 days at 37° C. and crystal violet staining for colony formation.
Standard bladder intravesical chemotherapy involves 1-2 hr irrigation with drugs at 37° C. or 42° C. The effect of treating cells with 32° C. hypothermia after chemotherapy was tested to avoid interference with drug uptake. TS mutant p53 activation peaks 6-8 hrs after shift to 32° C., which should cooperate with chemotherapy-induced DNA damage to induce cell death. […] Saline irrigation of up to 24 hrs is routinely performed after transurethral resection of bladder tumor (TURBT) procedure to prevent clotting. Therefore, irrigation with cooled saline after intravesical chemotherapy is expected to be well-tolerated and safe.

[4] = nude mice, intraperitoneal injection

SMILES: C=CCNC1=C2C[C@@H](C)C[C@H](OC)[C@H](O)[C@@H](C)/C=C(\C)[C@H](OC(N)=O)[C@@H](OC)/C=C\C=C(/C)C(=O)NC(=CC1=O)C2=O [17-AAG]
- p53 activation at 32° C. (ChIP DNA binding) ([1]; 50 μM 17-AAG): blocked p53 activation

SMILES: OC[C@H]1O[C@@H](n2cnc3c(NC4CCCCC4)ncnc32)[C@H](O)[C@@H]1O [CHA, N^6-cyclohexyladenosine]
- weight loss during hypothermia ([2]; CHA 10 mg/kg injections, due to loss of mobility and food intake): ~10%
- duration body temperature maintained at 32° C. ([2]; multiple injections of CHA, 28° C. environment): 24 to 32 h
- body temperature after CHA injection [2, 4]: ~3 °C above the environment
- time for body temperature decrease [2, 4]: ~10 min

SMILES: COc1cccc2c1C(=O)c1c(O)c3c(c(O)c1C2=O)C[C@@](O)(C(=O)CO)C[C@@H]3O[C@H]1C[C@H](N)[C@H](O)[C@H](C)O1 [Doxorubicin]
- effect of 32° C. for 24 hrs after drug on growth inhibition (colony formation) [3]: modestly increased

SMILES: Nc1ccn([C@@H]2O[C@H](CO)[C@@H](O)C2(F)F)c(=O)n1 [Gemcitabine]
- effect of 32° C. for 24 hrs after drug on growth inhibition (colony formation) [3]: modestly increased

SMILES: C[C@@H]1C[C@@H]([C@H](O)CC2CC(=O)NC(=O)C2)C(=O)[C@@H](C)C1 [cycloheximide]
- rescue of p53 DNA binding at 32° C. (ChIP) ([1]; cycloheximide (CHX)): did not prevent the rescue of DNA binding
